Assays:
[1] = test system: A375 human melanoma xenografts; test: A375 human melanoma xenograft study 1, tumor growth delay method; format: in vivo, athymic nude mice
From the text: The following study evaluates two intravenous formulations according to the present invention against human tumor xenografts in athymic nude mice. The study used the A375 human melanoma xenograft model to compare the in vivo antitumor efficacy of I.V. 9-nitro-camptothecin, in vehicles containing IDD-P which provides a particulate suspension of 9-nitro-camptothecin, and IDD-D which provides a droplet suspension of 9-nitro-camptothecin, to the efficacy of oral 9-nitro-camptothecin and intraperitoneal CAMPTOSAR®, HYCAMTIN®, and DTIC®. Examples 1 and 2 describe the compositions of IDD-P (FIG. 1; formulation 1-F) and IDD-D respectively.
In order to assess antitumor efficacy, groups of athymic nude mice (n=10) bearing ˜72-mg A375 melanomas were treated intravenously on the 5/2/5 schedule with 9-nitro-camptothecin in IDD-P at 3.0 mg/kg or 1.5 mg/kg and 9-nitro-camptothecin in IDD-D at 2.0 mg/kg or 1.0 mg/kg.
Female nude mice were 16 weeks of age (NCR-nuJBr; Taconic Farms) for the A375 study. The mice were fed ad libitum water (reverse osmosis, 1 ppm Cl) and autoclaved Prolab NIH-31 M/5% Rodent Diet consisting of 18% protein, 5% fat, 6% fiber, and 8% ash. Mice were housed in static microisolators on a 12-hour light cycle at 21-22° C. (70-72° F.) and 40%-60% humidity. The animal care and use program is AAALAC International accredited and specifically follows and complies with the recommendation of the National Research Council's Guide for the Care and Use of Laboratory Animals.
An A375 melanoma fragment (1 mm 3) was implanted subcutaneously in the flank of each nude mouse. When the tumors reached the 60-112 mg size range, the mice were sorted into treatment groups (on Day 1) such that the group mean tumor sizes ranged from 71.3 mg-72.5 mg. Estimated tumor weight was calculated using the formula: [formula]
IDD-P with a mean particle size of […] and IDD-D with a mean particle size of […] were prepared for the study by RTP Pharma Inc. For this, the 9-nitro-camptothecin suspensions were diluted with water and vehicle to provide doses of 3 mg/kg and 1.5 mg/kg in 33% IDD-P, and doses of 2 mg/kg and 1 mg/kg in 100% and 50% IDD-D, respectively. After dilution, 9-nitro-camptothecin suspensions were mixed thoroughly by gentle agitation and stored at 2-8° C. For its oral formulation, 9-nitro-camptothecin was dissolved in DMA (N,N-dimethylacetamide, SIGMA) and diluted with D5W to yield a final DMA concentration of 3%. CAMPTOSAR®, DTIC®, and HYCAMTIN® were obtained as the marketed drugs and solutions were prepared fresh on the day of dosing. […]
The tumor growth delay (TGD) method was used to assess efficacy. Tumor dimensions were measured twice weekly until the experiment was terminated on Day 62. […]

[2] = Evaluation of toxicity in the A375 melanoma study; format: in vivo, athymic nude mice; details: Group 7: 150 mg/kg I.P., qd×5
Protocol: Volumes of 0.20 ml per 20-g mouse, body-weight adjusted, were administered once daily. Tumor-bearing athymic nude mice were matched on Day 1 into 13 groups of ten animals and drug administration was initiated. The I.V. formulations of 9-nitro-camptothecin were given once daily on a 5/2/5 schedule as shown in the protocol summary shown in FIG. 4. Oral 9-nitro-camptothecin doses were given on a q3d×4 schedule (Days 1, 4, 8, and 11). Three reference drugs were administered I.P.: CAMPTOSAR® was given in three doses at weekly intervals (qwk×3); HYCAMTIN® was given in four doses at four-day intervals (q4d×4); and DTIC® was given in five consecutive daily doses (qd×5). The tumor growth control group for these reference treatments received no treatment (Group 1). The 9-nitro-camptothecin vehicle: 33.3% IDD-P, 100% IDD-D, and 3% DMA, was administered to vehicle control Groups 2-4, respectively.
The maximum tolerated dose (MTD), as defined by the NCI, is the highest dose at which no more than 10% of the animals die and the group mean body-weight loss is no more than 20%. Body weights were measured daily for four or five days and then twice weekly thereafter until the experiments were terminated on Day 62 of the study. […] Because mice are not tagged for MTD studies, only the mean group body weights recorded in the appended raw data are significant in those studies.

[3] = i.v., clinical trials; cited from earlier work
[4] = target: human serum albumin (HSA) (Homo sapiens, UniProt P02768); details: PBS at pH 7.4; cited from earlier work
Chain of human serum albumin (HSA) (P02768 25-609): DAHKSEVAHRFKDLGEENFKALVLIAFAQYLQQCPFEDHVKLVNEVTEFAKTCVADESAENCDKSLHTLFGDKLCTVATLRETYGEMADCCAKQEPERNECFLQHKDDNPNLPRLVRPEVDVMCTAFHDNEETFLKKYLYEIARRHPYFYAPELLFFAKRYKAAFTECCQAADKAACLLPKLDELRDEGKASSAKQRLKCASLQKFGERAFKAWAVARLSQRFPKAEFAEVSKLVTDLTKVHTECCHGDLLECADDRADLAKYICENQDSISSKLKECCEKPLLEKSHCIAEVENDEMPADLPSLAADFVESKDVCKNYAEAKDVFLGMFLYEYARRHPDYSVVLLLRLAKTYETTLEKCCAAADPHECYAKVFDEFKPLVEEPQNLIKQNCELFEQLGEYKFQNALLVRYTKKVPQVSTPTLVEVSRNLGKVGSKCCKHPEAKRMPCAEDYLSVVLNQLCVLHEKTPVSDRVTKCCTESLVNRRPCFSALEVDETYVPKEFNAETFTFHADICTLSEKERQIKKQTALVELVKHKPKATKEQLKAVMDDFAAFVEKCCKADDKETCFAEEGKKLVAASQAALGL

CCc1c2c(nc3ccc(OC(=O)N4CCC(N5CCCCC5)CC4)cc13)-c1cc3c(c(=O)n1C2)COC(=O)[C@]3(O)CC [CAMPTOSAR®, irinotecan]
62-day survivors (of 10 mice) ([1]; Group 5: 100 mg/kg I.P., qwk×3): one | complete regression (CR) responses on Day 62 ([1]; Group 5: 100 mg/kg I.P., qwk×3, 100 mg/kg): single and one

CN(C)/N=N/c1[nH]cnc1C(N)=O [DTIC®, dacarbazine]
toxic deaths (of 10 mice) [2]: one and One

CC[C@@]1(O)C(=O)OCc2c1cc1n(c2=O)Cc2cc3c(CN(C)C)c(O)ccc3nc2-1 [HYCAMTIN®, topotecan]
62-day survivors (of 10 mice) ([1]; Group 6: 10 mg/kg I.P., q4d×4): one | complete regression (CR) responses on Day 62 ([1]; Group 6: 10 mg/kg I.P., q4d×4, 10 mg/kg): single and one

CC[C@@](O)(C(=O)[O-])c1cc2n(c(=O)c1CO)Cc1cc3ccccc3nc1-2.[Na+] [Sodium camptothecin]
clinical activity [3]: antitumor activity | clinical side effects [3]: unpredictable side effects such as myelosuppression and hemorrhagic cystitis

CC[C@@]1(O)C(=O)OCc2c1cc1n(c2=O)Cc2cc3ccccc3nc2-1 [camptothecin, 20(S)-camptothecin]
affinity of HSA for the carboxylate form relative to the α-hydroxy lactone form [4]: 150 fold
